Results reported in patent US20260335329A1, “PROTEIN PHOSPHATASE AGONIST AND USE” (priority 2022, published 2026).
“And” between values parts separate entries of the source, which are not always exact repeats. Equal entries are not always repeated. Structures can show the parent of a compound that is named as a salt.

Experiments:
PC12 cells = experiment: Survival rate of PC12 cells in the okadaic acid-induced injury model (CCK-8); assay type: cell-based
Description: PC12 cells were detached and counted. A cell suspension was prepared at 8.0×10^4 cells/mL. 100 μL of the cell suspension was added to each well of a 96-well cell culture plate. The 96-well cell culture plate was placed in an incubator at 37° C. in 5% CO2 and cultured for 24 h. In an experimental group, the PC12 cells were pre-incubated for 2 h in a culture medium containing a test compound (the concentrations of the compound were 0.1 μmol/L, 0.5 μmol/L, 1 μmol/L, 5 μmol/L, and 10 μmol/L respectively, and the concentrations of the compound were set according to the concentrations in Table 5, Table 6, Table 7, and Table 8). […] In addition, a negative control group (no test compound or okadaic acid added) and a model group (only okadaic acid added) were set. The 96-well cell culture plate was placed in an incubator at 37° C. in 5% CO2 and cultured for 24 h. The cells in the 96-well cell culture plate were stained with 10 μL of CCK-8 in each well, and then cultured in the incubator for 1 h to 2 h. The 96-well cell culture plate was shaken gently for 10 min to mix uniformly and remove bubbles from the 96-well cell culture plate. The OD value of each well at 2=450 nm was read by using a microplate reader. A survival rate of cells was calculated.
Calculation formula for the cell survival rate: […]
The effect of each compound on the survival rate of PC12 cells in the okadaic acid- and Aβ1-42-induced injury models was determined by the CCK-8 cell proliferation assay.

PP2A = experiment: Okadaic acid-induced PP2A protein expression level in PC12 cells (Western Blot); assay type: cell-based; conditions: for PP2A (Western Blot signal) / PP2A(%): 24 h
Description: PC12 cells were inoculated into a T25 culture flask. After the cells were attached to the wall, compound 1 and compound 2 were added, and then the cells were incubated for 2 h. 40 nmol/L okadaic acid was then added. Then, the cells were incubated for 24 h. The protein was extracted. Based on the Western Blot assay, the PP2A protein expression level in PC12 cells was detected through SDS-PAGE and transfer, immunoblotting, color development, and G: BOX chemiXR5 imaging.

[1] = tested on: p-tauSer396 in SH-SY5Y cells; experiment: Okadaic acid-induced phosphorylation of tau protein (p-tauSer396) in SH-SY5Y cells (Western Blot); assay type: cell-based, human; conditions: okadaic acid 40 nmol/L alone (model group), 24 h, SEM, n = 3
Description: SH-SY5Y cells were cultured in vitro for 24 h in culture media containing different concentrations of compound 2. Then, the cells were treated with 40 nmol/L okadaic acid for 24 h. The p-tauSer396 level of the SH-SY5Y cells was measured by the Western Blot assay.

[2] = Rattus norvegicus, PC-12, 24 h, compound 5 μmol/L, 2 h, then okadaic acid 50 nmol/L, 24 h, PC12 cells
[3] = compound 5 μmol/L, 2 h, then okadaic acid 50 nmol/L, 24 h, PC12 cells
[4] = compound 1 μmol/L, 2 h, then okadaic acid 40 nmol/L
[5] = compound 5 μmol/L, 2 h, then okadaic acid 40 nmol/L
[6] = compound 10 μmol/L, 2 h, then okadaic acid 40 nmol/L

Structure (SMILES)	viability at 5 µM (PC12 cells; [2]) [%]	OD value at 450 nm, Mean ± SD (PC12 cells; [3])	other results
CCOc1ccc2c(c1)c(=N)oc1cc(COC)nn12 [Compound 14, 2-(methoxymethyl)-7-ethoxy-5H-benzo[d]pyrazolo[5,1-b][1,3]oxazin-5-imine]	66.7	0.866 ± 0.011	
COCCc1cc2oc(=N)c3ccc(F)cc3n2n1 [Compound 17, 2-(methoxyethyl)-8-fluoro-5H-benzo[d]pyrazolo[5,1-b][1,3]oxazin-5-imine]	67.9	0.882 ± 0.005	
CC(=O)OCc1cc2oc(=N)c3ccccc3n2n1 [Compound 6, (5-imino-5H-benzo[d]pyrazolo[5,1-b][1,3]oxazin-2-yl)methyl acetate]	68.4	0.889 ± 0.007	
COCc1cc2oc(=N)c3ccc(F)cc3n2n1 [Compound 10, 2-(methoxymethyl)-8-fluoro-5H-benzo[d]pyrazolo[5,1-b][1,3]oxazin-5-imine]	64.8	0.842 ± 0.008	
COCc1cc2oc(=N)c3cc(F)ccc3n2n1 [Compound 11, 2-(methoxymethyl)-7-fluoro-5H-benzo[d]pyrazolo[5,1-b][1,3]oxazin-5-imine]	66	0.857 ± 0.007	
COCc1cc2oc(=N)c3cc(OC)ccc3n2n1 [Compound 13, 2-(methoxymethyl)-7-methoxy-5H-benzo[d]pyrazolo[5,1-b][1,3]oxazin-5-imine]	67.7	0.879 ± 0.009	
CCOCc1cc2oc(=N)c3cc(F)ccc3n2n1 [Compound 15, 2-(ethoxymethyl)-7-fluoro-5H-benzo[d]pyrazolo[5,1-b][1,3]oxazin-5-imine]	67.1	0.872 ± 0.012	
COCCCc1cc2oc(=N)c3ccc(F)cc3n2n1 [Compound 18, 2-(methoxypropyl)-8-fluoro-5H-benzo[d]pyrazolo[5,1-b][1,3]oxazin-5-imine]	65.5	0.851 ± 0.007	
N=c1oc2cc(COC=O)nn2c2ccccc12 [Compound 5, (5-imino-5H-benzo[d]pyrazolo[5,1-b][1,3]oxazin-2-yl)methyl formate]	65.6	0.852 ± 0.004	
COCc1cc2oc(=N)c3cc(Cl)ccc3n2n1 [Compound 12, 2-(methoxymethyl)-7-chloro-5H-benzo[d]pyrazolo[5,1-b][1,3]oxazin-5-imine]	66.7	0.866 ± 0.003	
CCc1ccc2c(=N)oc3cc(COC)nn3c2c1 [Compound 9, 2-(methoxymethyl)-8-ethyl-5H-benzo[d]pyrazolo[5,1-b][1,3]oxazin-5-imine]	65.6	0.852 ± 0.010	
COCc1cc2oc(=N)c3ccc(C)cc3n2n1 [Compound 8, 2-(methoxymethyl)-8-methyl-5H-benzo[d]pyrazolo[5,1-b][1,3]oxazin-5-imine]	67.5	0.877 ± 0.009	
CSCc1cc2oc(=N)c3ccccc3n2n1 [Compound 7, 2-((methylthio)methyl)-5H-benzo[d]pyrazolo[5,1-b][1,3]oxazin-5-imine]	70.8	0.919 ± 0.008	
C=C1[C@@H](O)[C@@H]2O[C@]3(CC[C@H](/C=C/[C@@H](C)[C@@H]4CC(C)=C[C@@]5(O[C@H](C[C@@](C)(O)C(=O)O)CC[C@H]5O)O4)O3)CC[C@H]2O[C@@H]1[C@@H](O)C[C@H](C)[C@H]1O[C@@]2(CCCCO2)CC[C@H]1C [Okadaic Acid, okadaic acid, reference compound]			PP2A (Western Blot signal) (PP2A; okadaic acid 40 nmol/L alone): 339.39; PP2A(%) (PP2A; okadaic acid 40 nmol/L alone): 8%; p-tauSer396 level (%) [1]: 0.855 ± 0.023%; OD value at 450 nm, Mean ± SD (PC12 cells; okadaic acid 50 nmol/L alone (model group), 24 h, PC12 cells): 0.643 ± 0.014 and 1.225 ± 0.018 and 0.669 ± 0.025
N=c1oc2cc(CO)nn2c2ccccc12 [Compound 1, (5-imino-5H-benzo[d]pyrazolo[5,1-b][1,3]oxazin-2-yl) methanol]	70.5		PP2A (Western Blot signal) (PP2A; [4]): 437.09; PP2A(%) (PP2A; [4]): 14%; PP2A (Western Blot signal) (PP2A; [5]): 625.9; PP2A(%) (PP2A; [5]): 17%; PP2A (Western Blot signal) (PP2A; [6]): 953.23; PP2A(%) (PP2A; [6]): 22%; effect on the PP2A expression level (PP2A; compound 1, 5 and 10 μmol/L, compared with okadaic acid only): can significantly increase the PP2A expression level dose-dependently; viability at 0.1 µM (PC12 cells; Rattus norvegicus, PC-12, 24 h, compound 0.1 μmol/L, 2 h, then okadaic acid 50 nmol/L, 24 h, PC12 cells): 58.2%; viability at 0.5 µM (PC12 cells; Rattus norvegicus, PC-12, 24 h, compound 0.5 μmol/L, 2 h, then okadaic acid 50 nmol/L, 24 h, PC12 cells): 60.2%; viability at 1 µM (PC12 cells; Rattus norvegicus, PC-12, 24 h, compound 1 μmol/L, 2 h, then okadaic acid 50 nmol/L, 24 h, PC12 cells): 63.1%; viability at 10 µM (PC12 cells; Rattus norvegicus, PC-12, 24 h, compound 10 μmol/L, 2 h, then okadaic acid 50 nmol/L, 24 h, PC12 cells): 76.6%; survival rate compared with okadaic acid model group (PC12 cells; compound 0.1 μmol/L): statistical difference (P<0.05); OD value at 450 nm, Mean ± SD (PC12 cells; compound 0.1 μmol/L, 2 h, then okadaic acid 50 nmol/L, 24 h, PC12 cells): 1.337 ± 0.008; OD value at 450 nm, Mean ± SD (PC12 cells; compound 0.5 μmol/L, 2 h, then okadaic acid 50 nmol/L, 24 h, PC12 cells): 1.382 ± 0.013; OD value at 450 nm, Mean ± SD (PC12 cells; compound 1 μmol/L, 2 h, then okadaic acid 50 nmol/L, 24 h, PC12 cells): 1.449 ± 0.013; Survival rate % (PC12 cells; compound 5 μmol/L, 2 h, then okadaic acid 50 nmol/L, 24 h, PC12 cells, 1440 min, 5 µM): 71.70%; OD value at 450 nm, Mean ± SD (PC12 cells; compound 10 μmol/L, 2 h, then okadaic acid 50 nmol/L, 24 h, PC12 cells): 1.76 ± 0.032; survival rate compared with okadaic acid model group (PC12 cells; compound 0.5, 1, 5 and 10 μmol/L): significant statistical differences (P<0.01)
CCCOCc1cc2oc(=N)c3cc(F)ccc3n2n1 [Compound 16, 2-(propoxymethyl)-7-fluoro-5H-benzo[d]pyrazolo[5,1-b][1,3]oxazin-5-imine]	66.9	0.869 ± 0.005	
CCOCc1cc2oc(=N)c3ccccc3n2n1 [Compound 3, 2-(ethoxymethyl)-5H-benzo[d]pyrazolo[5,1-b][1,3]oxazin-5-imine]	66	0.858 ± 0.009	
CCCOCc1cc2oc(=N)c3ccccc3n2n1 [Compound 4, 2-(propoxymethyl)-5H-benzo[d]pyrazolo[5,1-b][1,3]oxazin-5-imine]	65.9	0.856 ± 0.012	
